Measurements as given in PubChem BioAssay (NCI).
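Briefly, cells in 96-well plates were exposed to five compound concentrations for 48 h, and endpoints were estimated by linear interpolation. Here, GI50 denotes the concentration required for 50% inhibition of growth. The concentration for full growth arrest is given as TGI.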

How the values were obtained:
Test in all cases: DTP human tumour cell line panel, 48 h
[1] = test system: RXF 393 renal
[2] = test system: NCI-H226 lung
[3] = test system: ACHN renal
[4] = test system: SF-539 CNS
[5] = test system: HCT-116 colon
[6] = test system: T-47D breast
[7] = test system: HOP-62 NSCLC
[8] = test system: MDA-MB-231 breast
[9] = test system: HOP-92 NSCLC
[10] = test system: CCRF-CEM leukemia
[11] = test system: NCI-H23 lung
[12] = test system: TK-10 renal
[13] = test system: HCC-2998 colon
[14] = test system: NCI-H460 lung
[15] = test system: SF-268 CNS
[16] = test system: MCF7 breast
[17] = test system: UACC-62 melanoma
[18] = test system: HT29 colon
[19] = test system: M14 melanoma
[20] = test system: SK-MEL-28 melanoma
[21] = test system: MALME-3M melanoma
[22] = test system: U251 CNS
[23] = test system: SK-OV-3 ovarian
[24] = test system: A498 renal
[25] = test system: OVCAR-8 ovarian
[26] = test system: IGROV1 ovarian
[27] = test system: NCI/ADR-RES ovarian
[28] = test system: MDA-MB-435
[29] = test system: SK-MEL-2 melanoma
[30] = test system: SW-620 colon
[31] = test system: PC-3 prostate
[32] = test system: UO-31 renal
[33] = test system: LOX IMVI melanoma
[34] = test system: COLO 205 colon
[35] = test system: UACC-257 melanoma
[36] = test system: OVCAR-3 ovarian
[37] = test system: NCI-H522 lung
[38] = test system: OVCAR-4 ovarian
[39] = test system: HS 578T breast
[40] = test system: SN12C renal
[41] = test system: SK-MEL-5 melanoma
[42] = test system: BT-549 breast
[43] = test system: DU-145 prostate
[44] = test system: A549 NSCLC
[45] = test system: HCT-15 colon
[46] = test system: SNB-75 CNS
[47] = test system: 786-0 renal
[48] = test system: SNB-19 CNS
[49] = test system: RPMI-8226 leukemia
[50] = test system: EKVX NSCLC
[51] = test system: OVCAR-5 ovarian
[52] = test system: MOLT-4 leukemia
[53] = test system: KM12 colon
[54] = test system: SF-295 CNS
[55] = test system: SR leukemia
[56] = test system: K-562 leukemia
[57] = test system: CAKI-1 renal
[58] = test system: HL-60(TB) leukemia

Compound: Cc1ccccc1[P+](C)(c1ccccc1C)c1ccccc1C
- TGI [1]: > 100 µM
- TGI [2]: 35.7 µM
- TGI [3]: 29.3 µM
- TGI [4]: 40.8 µM
- TGI [5]: 38.5 µM
- TGI [6]: 12.9 µM
- TGI [7]: 71.8 µM
- TGI [8]: 35.2 µM
- TGI [9]: 58 µM
- TGI [10]: 0.0867 µM
- TGI [11]: 27.3 µM
- TGI [12]: 36.8 µM
- TGI [13]: 12.6 µM
- TGI [14]: > 100 µM
- TGI [15]: > 100 µM
- TGI [16]: > 100 µM
- TGI [17]: 25.7 µM
- TGI [18]: 19.1 µM
- TGI [19]: 41.1 µM
- TGI [20]: 35.8 µM
- TGI [21]: 22.9 µM
- TGI [22]: 28.4 µM
- TGI [23]: > 100 µM
- TGI [24]: 49.9 µM
- TGI [25]: 45.4 µM
- TGI [26]: 33 µM
- TGI [27]: 58.8 µM
- TGI [28]: 21 µM
- TGI [29]: 34.7 µM
- TGI [30]: 39.1 µM
- TGI [31]: 55.2 µM
- TGI [32]: 34.8 µM
- TGI [33]: 30.5 µM
- TGI [34]: 22.4 µM
- TGI [35]: 15.8 µM
- TGI [36]: 23.6 µM
- TGI [37]: 21.6 µM
- TGI [38]: 18.1 µM
- TGI [39]: 55 µM
- TGI [40]: 43.9 µM
- TGI [41]: 16.8 µM
- TGI [42]: 63.1 µM
- TGI [43]: > 100 µM
- TGI [44]: 55.4 µM
- TGI [45]: 48.2 µM
- TGI [46]: 40.8 µM
- TGI [47]: 93.7 µM
- TGI [48]: 37.4 µM
- TGI [49]: 3.96 µM
- TGI [50]: 35 µM
- TGI [51]: 33.5 µM

Compound: CCn1ncc2c1nc(-c1ccccc1)c[n+]2[O-]
- TGI [3]: > 100 µM
- TGI [4]: > 100 µM
- TGI [5]: > 100 µM
- TGI [6]: > 100 µM
- TGI [10]: > 100 µM
- TGI [52]: > 100 µM
- TGI [11]: > 100 µM
- TGI [53]: > 100 µM
- TGI [14]: > 100 µM
- TGI [15]: > 100 µM
- TGI [16]: > 100 µM
- TGI [17]: > 100 µM
- TGI [18]: > 100 µM
- TGI [19]: > 100 µM
- TGI [20]: > 100 µM
- TGI [54]: > 100 µM
- TGI [55]: > 100 µM
- TGI [25]: > 100 µM
- TGI [26]: > 100 µM
- TGI [27]: > 100 µM
- TGI [28]: > 100 µM
- TGI [29]: > 100 µM
- TGI [31]: > 100 µM
- TGI [32]: > 100 µM
- TGI [34]: > 100 µM
- TGI [35]: > 100 µM
- TGI [36]: > 100 µM
- TGI [37]: > 100 µM
- TGI [39]: > 100 µM
- TGI [40]: > 100 µM
- TGI [43]: > 100 µM
- TGI [44]: > 100 µM
- TGI [45]: > 100 µM
- TGI [46]: > 100 µM
- TGI [47]: > 100 µM
- TGI [48]: > 100 µM
- TGI [56]: > 100 µM
- TGI [49]: > 100 µM
- TGI [50]: > 100 µM
- TGI [51]: > 100 µM

Compound: CCOC(CCCNCCCn1c2c(c3cc(OC)c(OC)cc3c1=O)C(=O)c1cc3c(cc1-2)OCO3)OCC
- GI50 [1]: 4.45 µM
- TGI [1]: 10.7 µM
- GI50 [2]: 3.43 µM
- TGI [2]: 10.7 µM
- GI50 [3]: 1.28 µM
- TGI [3]: 7.66 µM
- GI50 [5]: 2.41 µM
- TGI [5]: 9.83 µM
- GI50 [6]: 7.76 µM
- TGI [6]: 14.4 µM
- GI50 [8]: 2.65 µM
- TGI [8]: 10.1 µM
- GI50 [9]: 0.126 µM
- TGI [9]: 8.47 µM
- GI50 [10]: 0.759 µM
- TGI [10]: 6.24 µM
- GI50 [11]: 5.65 µM
- TGI [11]: 11.7 µM
- GI50 [12]: 6.79 µM
- TGI [12]: 13.2 µM
- GI50 [57]: 1.43 µM
- TGI [57]: 7.61 µM
- GI50 [53]: 5.93 µM
- TGI [53]: 12.1 µM
- GI50 [14]: 0.884 µM
- TGI [14]: 7.3 µM
- GI50 [15]: 2.97 µM
- TGI [15]: 10.4 µM
- GI50 [16]: 1.19 µM
- TGI [16]: 9.3 µM
- GI50 [17]: 6.03 µM
- TGI [17]: 12.2 µM
- GI50 [18]: 5.12 µM
- TGI [18]: 10.9 µM
- GI50 [19]: 5.25 µM
- TGI [19]: 11.1 µM
- GI50 [20]: 6.22 µM
- TGI [20]: 12.5 µM
- GI50 [21]: 6.77 µM
- TGI [21]: 13.6 µM
- GI50 [58]: 5.25 µM
- TGI [58]: 11.1 µM
- GI50 [22]: 1.51 µM
- TGI [22]: 9.44 µM
- GI50 [23]: 6.47 µM
- TGI [23]: 12.8 µM
- GI50 [24]: 5.79 µM
- TGI [24]: 12.1 µM
- GI50 [54]: 1.45 µM
- TGI [54]: 8.6 µM
- GI50 [25]: 5.27 µM
- TGI [25]: 11.2 µM
- GI50 [26]: 0.889 µM
- TGI [26]: 9.66 µM
- GI50 [27]: 6.5 µM
- TGI [27]: 13.7 µM
- GI50 [28]: 7.32 µM
- TGI [28]: 13.9 µM
- GI50 [29]: 7.59 µM
- TGI [29]: 14.2 µM
- GI50 [30]: 2.63 µM
- TGI [30]: 10.5 µM
- GI50 [31]: 5.38 µM
- TGI [31]: 11.3 µM
- GI50 [32]: 5.82 µM
- TGI [32]: 11.9 µM
- GI50 [33]: 1.73 µM
- TGI [33]: 9.81 µM
- GI50 [34]: 7.81 µM
- TGI [34]: 14.5 µM
- GI50 [35]: 7.21 µM
- TGI [35]: 13.7 µM
- GI50 [36]: 7.65 µM
- TGI [36]: 14.3 µM
- GI50 [37]: 5.34 µM
- TGI [37]: 11.3 µM
- GI50 [38]: 6.69 µM
- TGI [38]: 13.1 µM
- GI50 [39]: 5.76 µM
- TGI [39]: 12.7 µM
- GI50 [40]: 5.04 µM
- TGI [40]: 10.8 µM
- GI50 [41]: 7.62 µM
- TGI [41]: 14.3 µM
- GI50 [44]: 5.73 µM
- TGI [44]: 11.8 µM
- GI50 [45]: 6.1 µM
- TGI [45]: 12.3 µM
- GI50 [46]: 0.443 µM
- TGI [46]: 10.3 µM
- GI50 [47]: 4.35 µM
- TGI [47]: 10.6 µM
- GI50 [48]: 6.13 µM
- TGI [48]: 12.3 µM
- GI50 [56]: 5.53 µM
- TGI [56]: 11.5 µM
- GI50 [49]: 0.308 µM
- TGI [49]: 8.45 µM
- GI50 [51]: 10.2 µM
- TGI [51]: 17.3 µM

Compound: CS/C(C#N)=C(\C#N)SC
- TGI [1]: 5.11 µM
- TGI [2]: 5.92 µM
- TGI [3]: 29.9 µM
- TGI [4]: 34.1 µM
- TGI [5]: > 100 µM
- TGI [6]: 26.2 µM
- TGI [7]: > 100 µM
- TGI [8]: 89.6 µM
- TGI [10]: > 100 µM
- TGI [52]: 4.77 µM
- TGI [11]: 79.4 µM
- TGI [12]: 20.7 µM
- TGI [57]: 22.3 µM
- TGI [13]: 20.9 µM
- TGI [53]: 37.7 µM
- TGI [14]: 81.4 µM
- TGI [15]: 58 µM
- TGI [16]: 12.3 µM
- TGI [17]: 14.4 µM
- TGI [18]: 64.2 µM
- TGI [19]: 6.56 µM
- TGI [20]: 37.7 µM
- TGI [21]: 30.1 µM
- TGI [58]: 6.39 µM
- TGI [22]: > 100 µM
- TGI [24]: 47.7 µM
- TGI [54]: 53.8 µM
- TGI [55]: 5.43 µM
- TGI [25]: 6.06 µM
- TGI [26]: 43.8 µM
- TGI [27]: > 100 µM
- TGI [28]: 40.5 µM
- TGI [29]: 31.7 µM
- TGI [30]: > 100 µM
- TGI [31]: 62.2 µM
- TGI [32]: 18.9 µM
- TGI [33]: > 100 µM
- TGI [34]: > 100 µM
- TGI [35]: 30.6 µM
- TGI [36]: 4.88 µM
- TGI [37]: 3.75 µM
- TGI [38]: 38.2 µM
- TGI [39]: > 100 µM
- TGI [40]: 34.4 µM
- TGI [41]: 49.1 µM
- TGI [43]: 40.7 µM
- TGI [44]: > 100 µM
- TGI [45]: 5.95 µM
- TGI [46]: > 100 µM
- TGI [47]: > 100 µM
- TGI [48]: 65.9 µM
- TGI [56]: 48.4 µM
- TGI [49]: > 100 µM
- TGI [50]: 62.2 µM
- TGI [51]: > 100 µM
